# How the values were obtained:
# [1] = test system: normal human hepatocytes cell line (LO2); assay: Hepatoprotective activity on H2O2-induced LO2 cell injury; format: cell-based; details: LO2 cells, 1000 μM H2O2
# Protocol: (§1) The anti-AD drug tacrine has been forced to withdraw due to severe hepatotoxicity. Thus, the hepatotoxicity of compounds 5f on normal human hepatocytes cell line (LO2) was evaluated using MTT assay. […] Furthermore, the hepatoprotective activity of compound 5f on H2O2-induced live injury was tested using an MTT assay. […]
# • Materials. LO2 cells purchased from Wuhan Punosi Life Technology Co., Ltd. 30% H2O2, Trichloroacetic acid (TCA), SRB, DMEM medium (HyClone), Foetal bovine serum (LNSER, article number: S711-001S), Penicillin streptomycin mixture (double antibiotic) (Solarbio), 0.25% trypsin-EDTA digestive juice (Solarbio), DMSO (Solarbio), Potassium dihydrogen phosphate (Xiyu Science Co., Ltd., CAS: 7778-77-0); Ultra-clean workbench (Wuxi Easy Purification Equipment Co., Ltd., model: SW-CJ-VS2); Carbon dioxide incubator (Esco, model: 2014-88759); […]; • Experiment method. (a) Cell culture: cultured in DMEM medium containing 10% FBS and 1% double-antibody, placed in 37 °C, 5% CO2 constant temperature and humidity incubator, changed every 2 days, subcultured when cells were 90% confluent. (b) Effect of compounds on LO2 proliferation by SRB assay: Discard the culture medium, fix the cells with 10% (m/v) trichloroacetic acid (TCA) 100 μL, and place in a refrigerator at 4 °C for 1 h. The fixing solution was discarded, washed 5 times with distilled water, and dried in an oven. Adding 100 μL SRB solution to each well after drying, and leave it at room temperature for 10-30 min. Discard the supernatant, wash it 5 times with 1% glacial acetic acid water, air dry. Finally, add 100 μL/well of 10 mmol/L Tris-based buffer solution and oscillate on a plate shaker. The OD value was measured at 515 nm using a microplate reader. Cell viability (%) = OD test well/OD blank control well x 100%. (c) Effect of compounds on H2O2-induced LO2 cell injury by SRB assay. […] After treatment with H2O2 for 6h, the survival rate was measured by the SRB method.
# [2] = test system: normal human hepatocytes cell line (LO2); assay: Hepatotoxicity on LO2 cells; format: cell-based; details: 2.5 μM to 80.0 μM
# Protocol: as §1
# • Materials. LO2 cells purchased from Wuhan Punosi Life Technology Co., Ltd. 30% H2O2, Trichloroacetic acid (TCA), SRB, DMEM medium (HyClone), Foetal bovine serum (LNSER, article number: S711-001S), Penicillin streptomycin mixture (double antibiotic) (Solarbio), 0.25% trypsin-EDTA digestive juice (Solarbio), DMSO (Solarbio), Potassium dihydrogen phosphate (Xiyu Science Co., Ltd., CAS: 7778-77-0); Ultra-clean workbench (Wuxi Easy Purification Equipment Co., Ltd., model: SW-CJ-VS2); Carbon dioxide incubator (Esco, model: 2014-88759); […]; • Experiment method. (a) Cell culture: cultured in DMEM medium containing 10% FBS and 1% double-antibody, placed in 37 °C, 5% CO2 constant temperature and humidity incubator, changed every 2 days, subcultured when cells were 90% confluent. […] The OD value was measured at 515 nm using a microplate reader. […] After treatment with H2O2 for 6h, the survival rate was measured by the SRB method.
compound,measurement,setting,value
"CCN(CCCCCOc1cc(O)c2c(c1)OC(c1ccc(O)cc1)CC2=O)Cc1ccccc1 (stereo not shown) [Compound 5f, 7-((5-(benzyl(ethyl)amino)pentyl)oxy)-5-hydroxy-2–(4-hydroxyphenyl)chroman-4-one]",viability at 5 µM,"[1]; L02, 5.0 μM",65.2%
same,viability at 10 µM,"[1]; L02, 10.0 μM",69.7%
same,viability at 20 µM,"[1]; L02, 20.0 μM",79.4%
same,LO2 cell viability (hepatotoxicity),[2],did not show an obvious change until the concentration increased to 40.0 μM
